Experimental data reported in patent US9149038B2, “4-amino-6-(heterocyclic)picolinates and 6-amino-2-(heterocyclic)pyrimidine-4-carboxylates and their use as herbicides” (Dow AgroSciences LLC, priority 2013, dated 2015).
Like-named read-outs stand apart in the source and are kept apart here.

What was measured:
[1] = tested on: Key Broadleaf Weed and Crop Species; assay: Post-Emergent Test II: postemergent herbicidal activity, visual rating after 14 d (Table 7); assay type: in vivo; conditions: post-emergence, 336 h; for pest or weed control at 35 g/ha: 35 g ai/ha; for pest or weed control at 70 g/ha: 70 g ai/ha; for pest or weed control at 140 g/ha: 140 g ai/ha
Outline: (§1)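 Track-sprayed young seedlings (first/second true leaf) at 187 L/ha across a 2-fold rate series from the high rate down to 1/16×. Kept in greenhouse at 23-29° C day, subirrigated. Injury rated by eye after 14 d, 0 = no injury, 100 = complete kill.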

[2] = tested on: Key Grass and Sedge Weeds as well as Grass Crops; assay: Post-Emergent Test II: postemergent herbicidal activity, visual rating after 14 d (Table 8); assay type: in vivo; conditions: post-emergence, 336 h; for pest or weed control at 35 g/ha: 35 g ai/ha; for pest or weed control at 70 g/ha: 70 g ai/ha; for pest or weed control at 140 g/ha: 140 g ai/ha
Outline: as §1

[3] = lambsquarters (Chenopodium album), read-out: Visual Growth Reduction (%) 14 Days After Application CHEAL
[4] = oilseed rape, canola (Brassica napus), read-out: Visual Growth Reduction (%) 14 Days After Application BRSNN
[5] = redroot pigweed (Amaranthus retroflexus), read-out: Visual Growth Reduction (%) 14 Days After Application AMARE
[6] = sunflower (Helianthus annuus), read-out: Visual Growth Reduction (%) 14 Days After Application HELAN
[7] = velvetleaf (Abutilon theophrasti), read-out: Visual Growth Reduction (%) 14 Days After Application ABUTH
[8] = wild poinsettia (Euphorbia heterophylla), read-out: Visual Growth Reduction (%) 14 Days After Application EPHHL
[9] = barnyardgrass (Echinochloa crus-galli), read-out: Visual Growth Reduction (%) 14 Days After Application ECHCG
[10] = giant foxtail (Setaria faberi), read-out: Visual Growth Reduction (%) 14 Days After Application SETFA
[11] = maize, corn (Zea mays), read-out: Visual Growth Reduction (%) 14 Days After Application ZEAMX
[12] = rice (Oryza sativa), read-out: Visual Growth Reduction (%) 14 Days After Application ORYSA
[13] = wheat, spring (Triticum aestivum), read-out: Visual Growth Reduction (%) 14 Days After Application TRZAS
[14] = yellow nutsedge (Cyperus esculentus), read-out: Visual Growth Reduction (%) 14 Days After Application CYPES

Row | SMILES | pest or weed control at 35 g/ha [1, 3] | pest or weed control at 70 g/ha [1, 3] | pest or weed control at 140 g/ha [1, 3] | pest or weed control at 35 g/ha [1, 4] | pest or weed control at 70 g/ha [1, 4] | pest or weed control at 140 g/ha [1, 4] | pest or weed control at 35 g/ha [1, 5] | pest or weed control at 70 g/ha [1, 5] | pest or weed control at 140 g/ha [1, 5] | pest or weed control at 35 g/ha [1, 6] | pest or weed control at 70 g/ha [1, 6] | pest or weed control at 140 g/ha [1, 6] | pest or weed control at 35 g/ha [1, 7] | pest or weed control at 70 g/ha [1, 7] | pest or weed control at 140 g/ha [1, 7] | pest or weed control at 35 g/ha [1, 8] | pest or weed control at 70 g/ha [1, 8] | pest or weed control at 140 g/ha [1, 8] | pest or weed control at 35 g/ha [2, 9] | pest or weed control at 70 g/ha [2, 9] | other results
1 | COC(=O)c1nc(-c2ccc(Br)c3c2OC(F)(F)O3)c(F)c(N)c1Cl [Compound 78, Methyl 4-amino-6-(7-bromo-2,2-difluorobenzo[d][1,3]dioxol-4-yl)-3-chloro-5-fluoropicolinate] | 95 to 100% | 95 to 100% | 95 to 100% | 60 to 74% | 75 to 84% | 75 to 84% | 95 to 100% | 95 to 100% | 95 to 100% | 95 to 100% | 95 to 100% | 95 to 100% | 85 to 94% | 85 to 94% | 85 to 94% | 0 to 29% | 0 to 29% | 0 to 29% | 0 to 29% | 0 to 29% | pest or weed control at 140 g/ha [2, 9]: 0 to 29%; pest or weed control at 35 g/ha [2, 10]: 0 to 29%; pest or weed control at 70 g/ha [2, 10]: 0 to 29%; pest or weed control at 140 g/ha [2, 10]: 0 to 29%; pest or weed control at 35 g/ha [2, 11]: 60 to 74%; pest or weed control at 70 g/ha [2, 11]: 60 to 74%; pest or weed control at 140 g/ha [2, 11]: 60 to 74%; pest or weed control at 35 g/ha [2, 12]: 0 to 29%; pest or weed control at 70 g/ha [2, 12]: 0 to 29%; pest or weed control at 140 g/ha [2, 12]: 0 to 29%; pest or weed control at 35 g/ha [2, 13]: 0 to 29%; pest or weed control at 70 g/ha [2, 13]: 0 to 29%; pest or weed control at 140 g/ha [2, 13]: 0 to 29%; pest or weed control at 35 g/ha [2, 14]: 0 to 29%; pest or weed control at 70 g/ha [2, 14]: 0 to 29%; pest or weed control at 140 g/ha [2, 14]: 0 to 29%
2 | COC(=O)c1nc(-c2c(F)cc3c(c2F)OCO3)cc(N)c1Cl [Compound 48] | 95 to 100% | 95 to 100% | 95 to 100% | 95 to 100% | 95 to 100% | 95 to 100% | 85 to 94% | 95 to 100% | 95 to 100% | 0 to 29% | 45 to 59% | 60 to 74% | 85 to 94% | 95 to 100% | 95 to 100% | 95 to 100% | 95 to 100% | 95 to 100% | 75 to 84% | 75 to 84% | pest or weed control at 140 g/ha [2, 9]: 85 to 94%; pest or weed control at 35 g/ha [2, 10]: 0 to 29%; pest or weed control at 70 g/ha [2, 10]: 60 to 74%; pest or weed control at 140 g/ha [2, 10]: 75 to 84%; pest or weed control at 35 g/ha [2, 11]: 30 to 44%; pest or weed control at 70 g/ha [2, 11]: 60 to 74%; pest or weed control at 140 g/ha [2, 11]: 75 to 84%; pest or weed control at 35 g/ha [2, 12]: 30 to 44%; pest or weed control at 70 g/ha [2, 12]: 45 to 59%; pest or weed control at 140 g/ha [2, 12]: 60 to 74%; pest or weed control at 35 g/ha [2, 13]: 0 to 29%; pest or weed control at 70 g/ha [2, 13]: 30 to 44%; pest or weed control at 140 g/ha [2, 13]: 60 to 74%; pest or weed control at 35 g/ha [2, 14]: 0 to 29%; pest or weed control at 70 g/ha [2, 14]: 0 to 29%; pest or weed control at 140 g/ha [2, 14]: 30 to 44%
